Source: ChEMBL document CHEMBL4715829, “Heterodimeric Rifampicin-Tobramycin conjugates break intrinsic resistance of Pseudomonas aeruginosa to doxycycline and chloramphenicol in vitro and in a Galleria mellonella in vivo model” (Eur J Med Chem, 2019)
In brackets after ≈: the same amount, converted by molar mass.

Assays:
[1] = tested on: Pseudomonas aeruginosa; test: Antibacterial activity against Pseudomonas aeruginosa ATCC 27853 assessed as reduction in bacterial growth incubated for 18 hrs by broth microdilution assay; format: functional
[2] = tested on: Staphylococcus aureus; test: Antibacterial activity against methicillin-resistance Staphylococcus aureus ATCC 33592 assessed as reduction in bacterial growth incubated for 18 hrs by broth microdilution assay; format: functional
[3] = tested on: Escherichia coli; test: Antibacterial activity against gentamicin-resistant Escherichia coli CAN-ICU 61714 assessed as reduction in bacterial growth incubated for 18 hrs by broth microdilution assay; format: functional
[4] = tested on: Escherichia coli; test: Antibacterial activity against Escherichia coli CAN-ICU 63074 (AMK 32) assessed as reduction in bacterial growth incubated for 18 hrs by broth microdilution assay; format: functional
[5] = tested on: Escherichia coli; test: Antibacterial activity against gentamicin, tobramycin, ciprofloxacin-resistant Escherichia coli ATCC 97615 harboring aac(3')IIa gene assessed as reduction in bacterial growth incubated for 18 hrs by broth microdilution assay; format: functional
[6] = tested on: Stenotrophomonas maltophilia; test: Antibacterial activity against Stenotrophomonas maltophilia CAN-ICU 62584 assessed as reduction in bacterial growth incubated for 18 hrs by broth microdilution assay; format: functional
[7] = tested on: Acinetobacter baumannii; test: Antibacterial activity against Acinetobacter baumannii CAN-ICU 63169 assessed as reduction in bacterial growth incubated for 18 hrs by broth microdilution assay; format: functional
[8] = tested on: Klebsiella pneumoniae; test: Antibacterial activity against Klebsiella pneumoniae ATCC 13883 assessed as reduction in bacterial growth incubated for 18 hrs by broth microdilution assay; format: functional
[9] = tested on: Pseudomonas aeruginosa; test: Antibacterial activity against Pseudomonas aeruginosa 750 harboring efflux mutant assessed as reduction in bacterial growth incubated for 18 hrs by broth microdilution assay; format: functional
[10] = tested on: Pseudomonas aeruginosa; test: Antibacterial activity against Pseudomonas aeruginosa PAO1 assessed as reduction in bacterial growth by measuring rifampicin MIC at <=[…] uM in presence of rifampicin incubated for 18 hrs by broth microdilution assay based checkerboard assay (reference value: […] microg/ml); format: functional; details: dose microM <=10
[11] = tested on: Pseudomonas aeruginosa; test: Antibacterial activity against Pseudomonas aeruginosa PAO1 assessed as reduction in bacterial growth by measuring minocycline MIC at <=10 uM in presence of minocycline incubated for 18 hrs by broth microdilution assay based checkerboard assay (reference value: 8 microg/ml); format: functional; details: dose microM <=10
[12] = tested on: Pseudomonas aeruginosa; test: Antibacterial activity against Pseudomonas aeruginosa PAO1 assessed as reduction in bacterial growth by measuring aztreonam MIC at <=10 uM in presence of aztreonam incubated for 18 hrs by broth microdilution assay based checkerboard assay (reference value: 4 microg/ml); format: functional; details: dose microM <=10
[13] = tested on: Pseudomonas aeruginosa; test: Antibacterial activity against Pseudomonas aeruginosa PAO1 assessed as reduction in bacterial growth by measuring ceftazidime MIC at <=10 uM in presence of ceftazidime incubated for 18 hrs by broth microdilution assay based checkerboard assay (reference value: 2 microg/ml); format: functional; details: dose microM <=10
[14] = tested on: Pseudomonas aeruginosa; test: Antibacterial activity against Pseudomonas aeruginosa PAO1 assessed as reduction in bacterial growth by measuring pleuromutilin MIC at <=10 uM in presence of pleuromutilin incubated for 18 hrs by broth microdilution assay based checkerboard assay (reference value: 512 microg/ml); format: functional; details: dose microM <=10
[15] = tested on: Pseudomonas aeruginosa; test: Antibacterial activity against Pseudomonas aeruginosa PAO1 assessed as reduction in bacterial growth by measuring novobiocin MIC at <=10 uM in presence of novobiocin incubated for 18 hrs by broth microdilution assay based checkerboard assay (reference value: 512 microg/ml); format: functional; details: dose microM <=10
[16] = tested on: Pseudomonas aeruginosa; test: Antibacterial activity against Pseudomonas aeruginosa PAO1 assessed as reduction in bacterial growth by measuring colistin MIC at <=10 uM in presence of colistin incubated for 18 hrs by broth microdilution assay based checkerboard assay (reference value: 1 microg/ml); format: functional; details: dose microM <=10
[17] = tested on: Pseudomonas aeruginosa; test: Antibacterial activity against Pseudomonas aeruginosa PAO1 assessed as fractional inhibitory concentration index in presence of Tobramycin incubated for 18 hrs by broth microdilution assay based checkerboard assay; format: functional
[18] = tested on: Pseudomonas aeruginosa; test: Antibacterial activity against Pseudomonas aeruginosa PAO1 assessed as fractional inhibitory concentration index in presence of Doxycycline incubated for 18 hrs by broth microdilution assay based checkerboard assay; format: functional
[19] = tested on: Pseudomonas aeruginosa; test: Antibacterial activity against Pseudomonas aeruginosa PAO1 assessed as fractional inhibitory concentration index in presence of Tigecycline incubated for 18 hrs by broth microdilution assay based checkerboard assay; format: functional
[20] = tested on: Pseudomonas aeruginosa; test: Antibacterial activity against Pseudomonas aeruginosa PAO1 assessed as fractional inhibitory concentration index in presence of Linezolid incubated for 18 hrs by broth microdilution assay based checkerboard assay; format: functional
[21] = tested on: Pseudomonas aeruginosa; test: Antibacterial activity against Pseudomonas aeruginosa PAO1 assessed as fractional inhibitory concentration index in presence of Moxifloxacin incubated for 18 hrs by broth microdilution assay based checkerboard assay; format: functional
[22] = tested on: Pseudomonas aeruginosa; test: Antibacterial activity against Pseudomonas aeruginosa PAO1 assessed as fractional inhibitory concentration index in presence of Vancomycin incubated for 18 hrs by broth microdilution assay based checkerboard assay; format: functional
[23] = tested on: Pseudomonas aeruginosa; test: Antibacterial activity against Pseudomonas aeruginosa PAO1 assessed as fractional inhibitory concentration index in presence of Ceftazidime incubated for 18 hrs by broth microdilution assay based checkerboard assay; format: functional
[24] = tested on: Pseudomonas aeruginosa; test: Antibacterial activity against Pseudomonas aeruginosa PAO1 assessed as fractional inhibitory concentration index in presence of Chloramphenicol incubated for 18 hrs by broth microdilution assay based checkerboard assay; format: functional
[25] = tested on: Pseudomonas aeruginosa; test: Antibacterial activity against Pseudomonas aeruginosa PAO1 assessed as fractional inhibitory concentration index in presence of Clindamycin incubated for 18 hrs by broth microdilution assay based checkerboard assay; format: functional
[26] = tested on: Pseudomonas aeruginosa; test: Antibacterial activity against Pseudomonas aeruginosa PAO1 assessed as fractional inhibitory concentration index in presence of Erythromycin incubated for 18 hrs by broth microdilution assay based checkerboard assay; format: functional
[27] = tested on: Pseudomonas aeruginosa; test: Antibacterial activity against Pseudomonas aeruginosa PAO1 assessed as fractional inhibitory concentration index in presence of Colistin incubated for 18 hrs by broth microdilution assay based checkerboard assay; format: functional
[28] = tested on: Pseudomonas aeruginosa; test: Antibacterial activity against Pseudomonas aeruginosa 101243 assessed as fractional inhibitory concentration index in presence of chloramphenicol incubated for 18 hrs by broth microdilution assay; format: functional
[29] = tested on: Pseudomonas aeruginosa; test: Antibacterial activity against Pseudomonas aeruginosa 259-96918 assessed as fractional inhibitory concentration index in presence of doxycycline incubated for 18 hrs by broth microdilution assay; format: functional
[30] = tested on: Pseudomonas aeruginosa; test: Antibacterial activity against Pseudomonas aeruginosa 260-97103 assessed as fractional inhibitory concentration index in presence of chloramphenicol incubated for 18 hrs by broth microdilution assay; format: functional
[31] = tested on: Pseudomonas aeruginosa; test: Antibacterial activity against Pseudomonas aeruginosa 91433 assessed as fractional inhibitory concentration index in presence of chloramphenicol incubated for 18 hrs by broth microdilution assay; format: functional
[32] = Hemolytic activity in porcine erythrocyte at 1024 ug/ml incubated for 1 hr; format: ADME, cell-based, Sus scrofa; details: pig, porcine erythrocytes, at 1024 µg/mL, read-out: Activity
[33] = Cytotoxicity against human HEK293 cells assessed as cell viability at 50 uM incubated for 48 hrs by prestoblue assay; format: cell-based; details: read-out: Activity
[34] = tested on: Pseudomonas aeruginosa; test: Antibacterial activity against Pseudomonas aeruginosa 100036 assessed as reduction in bacterial growth incubated for 18 hrs by broth microdilution assay; format: functional
[35] = tested on: Pseudomonas aeruginosa; test: Antibacterial activity against Pseudomonas aeruginosa 260-97103 assessed as reduction in bacterial growth incubated for 18 hrs by broth microdilution assay; format: functional
[36] = tested on: Pseudomonas aeruginosa; test: Antibacterial activity against Pseudomonas aeruginosa 262-101856 assessed as reduction in bacterial growth incubated for 18 hrs by broth microdilution assay; format: functional
[37] = tested on: Pseudomonas aeruginosa; test: Antibacterial activity against Pseudomonas aeruginosa 114228 assessed as reduction in bacterial growth incubated for 18 hrs by broth microdilution assay; format: functional

SMILES	MIC [1]	MIC [2]	MIC [3]	MIC [4]	MIC [5]	MIC [6]	MIC [7]	MIC [8]	MIC [9]	fractional inhibitory concentration index (FICI) [28]	fractional inhibitory concentration index (FICI) [29]	fractional inhibitory concentration index (FICI) [30]	fractional inhibitory concentration index (FICI) [31]	MIC [34]	MIC [35]	MIC [36]	MIC [37]	further results
CO[C@H]1/C=C/O[C@@]2(C)Oc3c(C)c(O)c4c(O)c(c(/C=N/N5CCN(Cc6cn(CCCCCCO[C@@H]7[C@@H](O[C@H]8O[C@H](CO)[C@@H](O)[C@H](N)[C@H]8O)[C@H](N)C[C@H](N)[C@H]7O[C@H]7O[C@H](CN)[C@@H](O)C[C@H]7N)nn6)CC5)c(O)c4c3C2=O)NC(=O)/C(C)=C\C=C\[C@H](C)[C@H](O)[C@@H](C)[C@@H](O)[C@@H](C)[C@H](OC(C)=O)[C@@H]1C.Cl.Cl.Cl.Cl.Cl	> 32 µg/mL	> 32 µg/mL	> 32 µg/mL	> 32 µg/mL	> 32 µg/mL	> 32 µg/mL	> 32 µg/mL	> 32 µg/mL	256 µg/mL	0.187	<0.156	<0.141	0.375	256 µg/mL	> 128 µg/mL	> 256 µg/mL	> 128 µg/mL	MIC [10]: 4 µg/mL; MIC [11]: 2 µg/mL; MIC [12]: 4 µg/mL; MIC [13]: 2 µg/mL; MIC [14]: 128 µg/mL; MIC [15]: 128 µg/mL; MIC [16]: 0.5 µg/mL; fractional inhibitory concentration index (FICI) [17]: 1.03; fractional inhibitory concentration index (FICI) [18]: 0.06; fractional inhibitory concentration index (FICI) [19]: 0.51; fractional inhibitory concentration index (FICI) [20]: 0.15; fractional inhibitory concentration index (FICI) [21]: 0.53; fractional inhibitory concentration index (FICI) [22]: 1.03; fractional inhibitory concentration index (FICI) [23]: 1.03; fractional inhibitory concentration index (FICI) [24]: 0.06; fractional inhibitory concentration index (FICI) [25]: 0.28; fractional inhibitory concentration index (FICI) [26]: 0.15; fractional inhibitory concentration index (FICI) [27]: 0.53; hemolysis at 1 h, 1024 ug/ml [32]: < 2%; viability at 48 h, 50 µM [33]: > 70%
NC[C@H]1O[C@H](O[C@H]2[C@H](O)[C@@H](O[C@H]3O[C@H](CO)[C@@H](O)[C@H](N)[C@H]3O)[C@H](N)C[C@@H]2N)[C@H](N)C[C@@H]1O [TOBRAMYCIN]	1 µg/mL (≈ 2.14 µM)	0.5 µg/mL (≈ 1.07 µM)	8 µg/mL (≈ 17.1 µM)	8 µg/mL (≈ 17.1 µM)	128 µg/mL (≈ 274 µM)	> 512 µg/mL	32 µg/mL (≈ 68.4 µM)	≤ 0.25 µg/mL	0.5 µg/mL (≈ 1.07 µM)	1.5	1.125	1	1.5	128 µg/mL (≈ 274 µM)	32 µg/mL (≈ 68.4 µM)	1020 µg/mL (≈ 2190 µM)	8 µg/mL (≈ 17.1 µM)	–
